Data: patent US20250017891A1, “PHARMACEUTICAL COMPOSITION COMPRISING CABAZITAXEL PRODRUG-CYCLODEXTRIN INCLUSION COMPLEX, AND APPLICATIONS THEREOF” (TWI PHARMACEUTICALS, INC., priority 2023, published 2025)
Values joined by “and” are separate entries in the source; they are usually repeats but may differ in a detail not shown here. Equal entries are not always repeated. Where two headings read alike, the source gives them in different places.

What was measured:
[1] = even in the mixed solvent of water and organic reagent; cited from earlier work
[2] = Saturation test of CBT succinate-SBECD (1:2.2), solubility; format: physicochemical; conditions: aqueous buffer, thermodynamic from solid, excess complex dissolved by 20 mM pH 8.0 phosphate buffer, read-out: CBT succinate water solubility
From the text: For the CBT succinate-SBECD (1:2.2), a saturation test was further carried out.

[3] = Hydrolysis of CBT succinate dissolved in the aqueous preclinical formulation; format: physicochemical; conditions: 50% PEG300 in normal saline
[4] = In vivo bioconversion of CBT succinate in 50% PEG300 formulation, IV, mouse plasma by LC-MS/MS; design: species or system ICR male mice; conditions: 15 mg/kg IV
Description: The bioanalysis results are tabulated as Tables 1 to 3 below. The values of mean and standard deviation (SD) are calculated. BLOQ means “below the limit of quantification”, and N/A means “not available”. Normal saline used herein is 0.90% sodium chloride aqueous solution.
C0: Initial concentration; • 3. […] AUC/D: AUC divided by dose; • 6.

[5] = analyte Cabazitaxel in mouse plasma, CBT succinate in 50% PEG300 formulation, time 24 h
[6] = male, ICR, mouse plasma, CBT succinate in 50% PEG300 formulation
[7] = mouse plasma, CBT succinate in 50% PEG300 formulation
[8] = mouse plasma, CBT succinate in 50% PEG300 formulation, time 4 h
[9] = mouse plasma, CBT succinate in 50% PEG300 formulation, time 8 h
[10] = mouse plasma, CBT succinate in 50% PEG300 formulation, time 24 h

Structure (SMILES): CO[C@H]1C(=O)[C@]2(C)[C@@H](OC)C[C@H]3OC[C@@]3(OC(C)=O)[C@H]2[C@H](OC(=O)c2ccccc2)[C@]2(O)C[C@H](OC(=O)[C@H](O)[C@@H](NC(=O)OC(C)(C)C)c3ccccc3)C(C)=C1C2(C)C [cabazitaxel]
- solubility [1]: almost insoluble

Structure (SMILES): CO[C@H]1C(=O)[C@]2(C)[C@@H](OC)C[C@H]3OC[C@@]3(OC(C)=O)[C@H]2[C@H](OC(=O)c2ccccc2)[C@]2(O)C[C@H](OC(=O)[C@H](OC(=O)CCC(=O)O)[C@@H](NC(=O)OC(C)(C)C)c3ccccc3)C(C)=C1C2(C)C [CBT succinate, cabazitaxel succinate]
- solubility [2]: 120 µg/mL
- hydrolysis when dissolved in the aqueous preclinical formulation [3]: prone to hydrolysis
- CBT concentration (individual mouse) ([4]; analyte Cabazitaxel in mouse plasma, CBT succinate in 50% PEG300 formulation, time 8 h, 15 mg/kg): BLOQ
- CBT concentration (individual mouse) [4, 5]: BLOQ
- CBT concentration, Mean [4, 5]: BLOQ
- concentration at 0.083 h ([4]; male, ICR, mouse, plasma, iv, 15 mg/kg, mouse plasma, CBT succinate in 50% PEG300 formulation, time 0.083 h, read-out: CBT succinate concentration (individual mouse)): 5980 ng/mL
- concentration at 0.083 h ([4]; male, ICR, mouse, plasma, iv, 15 mg/kg, mouse plasma, CBT succinate in 50% PEG300 formulation, time 0.083 h, read-out: CBT succinate concentration, Mean): 5750 ng/mL
- concentration at 0.167 h ([4]; male, ICR, mouse, plasma, iv, 15 mg/kg, mouse plasma, CBT succinate in 50% PEG300 formulation, time 0.167 h, read-out: CBT succinate concentration (individual mouse)): 3100 ng/mL
- concentration at 0.167 h ([4]; male, ICR, mouse, plasma, iv, 15 mg/kg, mouse plasma, CBT succinate in 50% PEG300 formulation, time 0.167 h, read-out: CBT succinate concentration, Mean): 3030 ng/mL
- concentration at 0.5 h ([4]; male, ICR, mouse, plasma, iv, 15 mg/kg, mouse plasma, CBT succinate in 50% PEG300 formulation, time 0.5 h): 386 ng/mL
- concentration at 1 h ([4]; male, ICR, mouse, plasma, iv, 15 mg/kg, mouse plasma, CBT succinate in 50% PEG300 formulation, time 1 h): 50 ng/mL
- concentration at 2 h ([4]; male, ICR, mouse, plasma, iv, 15 mg/kg, mouse plasma, CBT succinate in 50% PEG300 formulation, time 2 h, read-out: CBT succinate concentration (individual mouse)): 15 ng/mL
- concentration at 2 h ([4]; male, ICR, mouse, plasma, iv, 15 mg/kg, mouse plasma, CBT succinate in 50% PEG300 formulation, time 2 h, read-out: CBT succinate concentration, Mean): 15 ng/mL
- C0 [4, 6]: 10800 ng/mL
- MRT [4, 6]: 9.6 min
- AUC(0-inf) ([4]; male, ICR, mouse plasma, CBT succinate in 50% PEG300 formulation, read-out: AUCInf of CBT Succinate): 1770 ng·h/mL
- AUC(0-t) ([4]; male, ICR, mouse plasma, CBT succinate in 50% PEG300 formulation, read-out: AUClast of CBT Succinate): 1770 ng·h/mL
- clearance ([4]; male, ICR, mouse plasma, CBT succinate in 50% PEG300 formulation, read-out: CL of CBT Succinate): 141 mL/min/kg
- Vd ([4]; male, ICR, mouse plasma, CBT succinate in 50% PEG300 formulation, read-out: Vss of CBT Succinate): 1.38 L/kg
- half-life ([4]; male, ICR, mouse plasma, CBT succinate in 50% PEG300 formulation, read-out: t1/2 of CBT Succinate (converted)): 13.8 min
- bioconversion of CBT succinate to CBT ([4]; mice, 50% PEG300 formulation): very rapidly
- AUC Extr of CBT Succinate [4, 7]: 0.28%
- AUC/D of CBT Succinate [4, 7]: 118 kg·ng·h/mL/mg
- CBT succinate concentration (individual mouse) ([4]; mouse plasma, CBT succinate in 50% PEG300 formulation, time 0.083 h, 15 mg/kg): 5803 ng/mL and 5480 ng/mL
- CBT succinate concentration (individual mouse) ([4]; mouse plasma, CBT succinate in 50% PEG300 formulation, time 0.167 h, 15 mg/kg): 3144 ng/mL and 2857 ng/mL
- CBT succinate concentration (individual mouse) ([4]; mouse plasma, CBT succinate in 50% PEG300 formulation, time 0.5 h, 15 mg/kg): 541 ng/mL and 397 ng/mL and 221 ng/mL
- CBT succinate concentration (individual mouse) ([4]; mouse plasma, CBT succinate in 50% PEG300 formulation, time 1 h, 15 mg/kg): 25 ng/mL and 51 ng/mL and 73 ng/mL
- CBT succinate concentration (individual mouse) ([4]; mouse plasma, CBT succinate in 50% PEG300 formulation, time 2 h, 15 mg/kg): BLOQ
- CBT succinate concentration (individual mouse) [4, 8]: BLOQ
- CBT succinate concentration, Mean [4, 8]: BLOQ
- CBT succinate concentration (individual mouse) [4, 9]: BLOQ
- CBT succinate concentration, Mean [4, 9]: BLOQ
- CBT succinate concentration (individual mouse) [4, 10]: BLOQ
- CBT succinate concentration, Mean [4, 10]: BLOQ
